The text below walks through data of patent US10421784B2, “Cell penetrating peptides for intracellular delivery of molecules” (AADIGEN, LLC, priority 2012, dated 2019).

Read-outs that look alike come from different tables or passages of the source. Where a SMILES comes first, the peptide text is derived from it.

In data set [1] the test system is non-transformed HS68 fibroblasts. Put plainly: Cell proliferation after VEPEP-9 mediated delivery. The class given is cell-based, Human. The protocol: (§1) Adherent HS68 fibroblasts, HeLa, PC3, MCF-7, SCK3-Her2, PBMC cell lines (from American Type Culture Collection (ATCC)) were cultured in Dulbecco's Modified Eagle's Medium supplemented with 2 mM glutamine, 1% antibiotics (streptomycin 10,000 μg/ml, penicillin, 10,000 IU/ml) and 10% (w/v) foetal calf serum (FCS), at 37° C. in a humidified atmosphere containing 5% CO2. Stock solutions of VEPEP-9/peptide particles were prepared by complexing 1 μM peptide with VEPEP-9 peptides at a molar ratio of 1/20 for 30 min at 37° C. Lower concentrations of VEPEP-9-carrier/peptide (from 500 nM to 1 μM) were obtained by serial dilution of the stock complexes in PBS, in order to preserve the same VEPEP-9-carrier/peptide ratio. Stock solutions of VEPEP-9/siRNA particles were prepared by complexing 100 nM siRNA with VEPEP-9 peptides at a molar ratio of 1/20 for 30 min at 37° C. Lower concentrations of VEPEP-9/siRNA (from 20 nM to 0.125 nM) were obtained by serial dilution of the stock complexes in PBS, in order to preserve the same VEPEP-9/siRNA ratio. […] For cdk2 derived peptides, cell proliferation was monitored after 24 and 48 hrs. For siRNA targeting Cyclin B1, Cyclin B1 mRNA level was determined 24 hrs following transduction, using Quantigen (Pommies Inc.). […]

Data set [2] concerns Hela, MCF7, HEK-2 and U2OS cells. Put plainly: Cell proliferation after VEPEP-9 mediated delivery. The class given is cell-based. On the procedure:
as §1

Data set [3] deals with cultured cells. Put plainly: Cell cycle progression / cyclin B1 levels in cultured cells. The data set is classed as cell-based.
Data set [4] concerns SKB3. Put plainly: Inhibition of cancer cell proliferation by delivered drugs. The data set is classed as cell-based.
Data set [5] concerns MCF7. The data set is described as above. The settings on record: Homo sapiens. The class given is cell-based.
The subject of data set [6] is PC3, A549, or SCK-3-HEK2-xenografted mice. Put plainly: Tumour growth and cyclin B1 mRNA, siRNA controls. The data set is classed as in vivo. The settings on record: complexed with NANOPEP-9e, 0.5 mg/kg. On the procedure: For siRNA treatment: Two to three weeks after tumour implant, when tumour size reached about 100 mm^3, animals were treated by intratumoral or intravenous injection, every 3 days, with a solution of 0.1 ml of either free Cyc-B1 siRNA (50 or 100 μg), control siRNA Cyc-B3 or Cyc-B1 siRNA (1, 5, 10 μg) complexed with NANOPEP-9 at a 1/20 molar ratio.
Athymic female nude mice (6-8 weeks of age) were subcutaneously inoculated into the flank with 1×10^6 PC3 (prostate cancer), A549 (lung cancer) or SCK-3-HEK2 (ovarian cancer) cells in 100 μl PBS. Two to three weeks after tumour implant, when tumour size reached about 100 mm^3, animals were treated by intratumoral or intravenous injection, every 3 days, with a solution of 0.1 ml of either free Cyc-B1 siRNA (50 or 100 μg), control siRNA Cyc-B3 or Cyc-B1 siRNA (5, 10 μg) complexed with NANOPEP-9b or NANOPEP-9e particles. The “core” shell of the particles was formed using VEVEP-9b or VEPEP-9e peptide at a molar ratio of 20/1 with a siRNA targeting cycline B1. siRNA stock solutions are in 50 mM Tris, 0.5 mM EDTA buffer or in RNase free water. VEPEP-9 peptides were solubilised in water and stock solution of peptide was sonicated for 10 min in a water bath before complex formation. Then VEPEP-9/siRNA complexes were formed by adding siRNA into the peptide solution and incubating at 37° C. for 20-30 minutes to allow the carrier peptide/siRNA complexes to form. NANOPEP-9 particles contain a VEPEP-9/siRNA “core shell” surrounded by additional VEPEP-9 at a 1/20 molar ratio.
The potential of NANOPEP-9b or NANOPEP-9e to deliver cyclin B1 siRNA in vivo was evaluated on PC3, A549, or SCK-3-HEK2-xenografted mice (FIGS. 13A-13B). The effect of local intratumoral administration of NANOPEP-9/siRNA particles (molar ratio 20/1) on the growth of established subcutaneous tumours was evaluated. At day 50, tumor sizes in the control cohort, injected with PBS increased by about 3 to 5 fold. […] At day 48, it was validated that the Cyc-B1 siRNA mediated inhibition of tumour growth was directly associated with a decrease in the level of cyclin B1 mRNA.

Data set [7] is described as follows: Fluorescence titration, VEPEP-9/cargo binding. The settings on record: cargo SHM. The protocol:
(§2) Fluorescence experiments were performed on a PTI spectrofluorimeter at 25° C. in a NaCl 154 mM buffer. Intrinsic Trp-fluorescence of VEPEP-9 was excited at 290 nm and emission spectrum was recorded between 310 and 400 nm, with a spectral band-pass of 2 and 8 nm for excitation and emission, respectively. FITC- or CY5-fluorescence of labelled-peptide or Oligonucleotide were excited at 492 nm and emission recorded between 500 and 580 nm. For VEPEP-9/peptide interaction, 0.5 μM of FITC-labelled peptide was titrated by increasing concentrations of VEPEP-9. For VEPEP-9/oligonucleotide interaction, 200 nM of FITC or CY5-labelled oligodeoxynucleotide (ODN) was titrated by increasing concentrations of VEPEP-9. All measurements were corrected for the dilution and curve fitting were performed by using Grafit software (Erithacus).
(§3) VEPEP-9 peptide form stable complexes with peptides and ODN. The binding of cargos to VEPEP-9 was monitored by fluorescence spectroscopy using the both intrinsic Trp group of VEPEP-9 (3 to 5 Trp-residues) and extrinsic fluorescently labelled cargoes (using Cy3, Cy5 or FITC). Curve fitting reveal that VEPEP-9 strongly binds the different cargoes with dissociation constant in the nanomolar range (Tables 1 and 2 and FIG. 2).
(§4) VEPEP-9 peptides form stable particles with different cargoes including peptide, siRNA, PNA and small aromatic (FIG. 2). The dissociation constant for peptide, siRNA, PNA and small hydrophobic molecule ranges between 10-100 nM, 5-50 nM, 5-50 nM and 0.02 to 0.2 μM, respectively, depending on the nature of the dyes and of the cargoes.

For data set [8], the system named is PNA (15 mer -PNA). Briefly: Fluorescence titration, VEPEP-9/cargo binding. The settings on record: cargo PNA (15 mer). The protocol:
as §2, §3, §4

Data set [9] concerns Peptide (C4). Briefly: Fluorescence titration, VEPEP-9/cargo binding. Particulars: cargo peptide (C4). The protocol:
as §2, §3, §4

For data set [10], the system named is siRNA. Put plainly: Fluorescence titration, VEPEP-9/cargo binding. The settings on record: cargo siRNA. The protocol: as §2, §3, §4
A short description of data set [11]: Fluorescence titration, VEPEP-9/SHM binding. On the procedure: as §2
Binding of small molecule cargoes has been investigated in detailed depending on the nature of the SHM. Several hydrophobic molecules have been used (Daunomycin, Paclitaxel, doxorubicin, porphyrin), as well as charged molecules (nucleotide, nucleoside and fluorescent dyes).

Where [12] appears, read: drug complexed with VEPEP-9a at molar ratio 1/20, read-out: VEPEP-9a IC50.
[13] abbreviates: drug complexed with VEPEP-9b at molar ratio 1/20, read-out: VEPEP-9b IC50.
Where [14] appears, read: drug complexed with VEPEP-9f at molar ratio 1/20, read-out: VEPEP-9f IC50.
[15] abbreviates: drug complexed with VEPEP-9d at molar ratio 1/20, read-out: VEPEP-9d IC50.
Setting [16] is: free drug, read-out: Free drug IC50.

Broadly, the IC50 is the concentration needed to halve the response being measured. The term Kd denotes the equilibrium constant for the complex coming apart. A low value points to higher affinity.

Regarding `CSCC[C@H](NC(=O)[C@H](CCCNC(=N)N)NC(=O)[C@@H](NC(=O)[C@H](CCC(N)=O)NC(=O)[C@H](CCCCN)NC(=O)[C@@H](N)CCCCN)C(C)C)C(=O)N[C@@H](C)C(=O)N[C@@H](Cc1c[nH]cn1)C(=O)N[C@@H](CC(C)C)C(=O)N[C@H](C(=O)N[C@@H](CC(C)C)C(=O)N[C@H](C(=O)O)[C@@H](C)O)C(C)C` [C4, KKQVRMAHLVLT] (H-KKQVRMAHLVLT-OH; N-terminus and C-terminus assumed), in data set [1], the reduction of proliferation is given as 10%. Also, in data set [2], the “concentration sufficient to block proliferation” value is listed as 200 nM. Also, in data set [3] (VEPEP-9 mediated delivery), the “concentration at which 4 N accumulation was optimally obtained” value was determined as 200 nM.

Regarding `CC(=O)O[C@H]1C(=O)[C@@]2(C)[C@H]([C@H](OC(=O)c3ccccc3)[C@]3(O)C[C@H](OC(=O)[C@H](O)[C@@H](NC(=O)c4ccccc4)c4ccccc4)C(C)=C1C3(C)C)[C@]1(OC(C)=O)CO[C@@H]1C[C@@H]2O` [Taxol, taxol], the IC50 was determined as 700 nM in data set [4] (setting [12]); 650 nM in [4] (setting [13]); 900 nM in data set [4] (setting [14]); 700 nM in data set [4] (setting [15]); 10000 nM in data set [4] (setting [16]); 800 nM in [5] (setting [12]). Besides, the IC50 in [5] (setting [13]) was 120 nM; in data set [5] (setting [14]) it was 800 nM; in data set [5] (setting [15]), 500 nM; in data set [5] (setting [16]) it was 7000 nM.

For “Cyc-B3: mismatch cyclin B1 siRNA harbouring two mutations; sense 5′GGUGAAGAUCAGCAUGGCATT3′ (antisense UGCCAUGUCGAUCUUCACCTT; chemistry not given here)”, the “effect on cyclin B1 levels and cell cycle progression” value in data set [3] (200 nM, complexed with VEPEP-9 at a 20/1 ratio) is “no effect”. For the same compound, the “inhibition of tumour growth” value in data set [6] was “unable to inhibit tumour growth”.

As to “X1WWGSWATPRRRWWR [VEPEP-9e, X1 is beta-A or S]”, the Binding entry in data set [7] is on record as “Yes”; in data set [8] it was “Yes”; in data set [9] it was “yes”; in [10], “yes”; in data set [11] (cargo AZT), “yes”; in data set [11] (cargo Doxorubicin), “yes”. The Binding entry in data set [11] (cargo FAM-guanosine) and in [11] (cargo porphyrin) was “yes” each time. Also, the Kd is 20 to 100 nM in data set [7]; 5 to 50 nM in [8]; 5 to 50 nM in [10]; 90 nM in data set [11] (cargo AZT); 50 nM in [11] (cargo Doxorubicin); 1100 nM in [11] (cargo FAM-guanosine). Moreover, in [11] (cargo porphyrin), the Kd is 200 nM. Besides, the “effect on cyclin B1 levels and cell cycle progression” value in data set [3] (carrier alone (100 μM)) is reported as “no effect”.

Take “X1WWRWWASWARSWWR [VEPEP-9d, X1 is beta-A or S]”: the Binding entry in [7] is reported as “Yes”; in [8], “Yes”; in [9], “yes”; in data set [10] it was “yes”; in data set [11] (cargo AZT) it was “yes”; in data set [11] (cargo Doxorubicin) it was “yes”. For the same compound, the Binding result in data set [11] (cargo FAM-guanosine) and in data set [11] (cargo porphyrin) was “yes” in each case. In addition, the Kd is 20 to 100 nM in [7]; more than 50 nM in data set [8]; more than 200 nM in data set [10]; 20 nM in data set [11] (cargo AZT); 90 nM in [11] (cargo Doxorubicin); 400 nM in [11] (cargo FAM-guanosine). This compound also returned a Kd in data set [11] (cargo porphyrin) of 250 nM.
